One assay deals with VEGFR2 (KDR) (Homo sapiens (Human), UniProt P35968). Put plainly: VEGFR2 Kinase Assay (biochemical KDR kinase assay, ELISA). To be noted: purified cytoplasmic domain KDR protein, 2.7 μM ATP. The procedure: Biochemical KDR kinase assays were performed in 96 well microtiter plates that were coated overnight with 75 μg/well of poly-Glu-Tyr (4:1) in 10 mM Phosphate Buffered Saline (PBS), pH 7.4. The coated plates were washed with 2 mls per well PBS+0.05% Tween-20 (PBS-T), blocked by incubation with PBS containing 1% BSA, then washed with 2 mls per well PBS-T prior to starting the reaction. Reactions were carried out in 100 μL reaction volumes containing 2.7 μM ATP in kinase buffer (50 mM Hepes buffer pH 7.4, 20 mM MgCl2, 0.1 mM MnCl2 and 0.2 mM Na3VO4). Test compounds were reconstituted in 100% DMSO and added to the reaction to give a final DMSO concentration of 5%. Reactions were initiated by the addition 20 ul per well of kinase buffer containing 200-300 ng purified cytoplasmic domain KDR protein (BPS Bioscience, San Diego, Calif.). Following a 15 minute incubation at 30° C., the reactions were washed 2 mls per well PBS-T. 100 μl of a monoclonal anti-phosphotyrosine antibody-peroxidase conjugate diluted 1:10,000 in PBS-T was added to the wells for 30 minutes. Following a 2 mis per well wash with PBS-Tween-20, 100 μl of O-Phenylenediamine Dihydrochloride in phosphate-citrate buffer, containing urea hydrogen peroxide, was added to the wells for 7-10 minutes as a colorimetric substrate for the peroxidase. The reaction was terminated by the addition of 100 μl of 2.5N H2SO4 to each well and read using a microplate ELISA reader set at 492 nm. IC50 values for compound inhibition were calculated directly from graphs of optical density (arbitrary units) versus compound concentration following subtraction of blank values.
On the technique in general: ELISA stands for enzyme-linked immunosorbent assay.

Assay [1] concerns the target T1, PDGFRβ (Homo sapiens (Human), UniProt P09619). Briefly: PDGFRβ Kinase Assay (biochemical, ELISA). Particulars: purified cytoplasmic domain PDGFR-b protein, 36 μM ATP. As to the method: Biochemical PDGFRβ kinase assays were performed in 96 well microtiter plates that were coated overnight with 75 μg of poly-Glu-Tyr (4:1) in 10 mM Phosphate Buffered Saline (PBS), pH 7.4. The coated plates were washed with 2 mls per well PBS+0.05% Tween-20 (PBS-T), blocked by incubation with PBS containing 1% BSA, then washed with 2 mls per well PBS-T prior to starting the reaction. Reactions were carried out in 100 μL reaction volumes containing 36 μM ATP in kinase buffer (50 mM Hepes buffer pH 7.4, 20 mM MgCl2, 0.1 mM MnCl2 and 0.2 mM Na3VO4). Test compounds were reconstituted in 100% DMSO and added to the reaction to give a final DMSO concentration of 5%. Reactions were initiated by the addition 20 ul per well of kinase buffer containing 200-300 ng purified cytoplasmic domain PDGFR-b protein (Millipore). Following a 60 minute incubation at 30° C., the reactions were washed 2 mls per well PBS-T. 100 μl of a monoclonal anti-phosphotyrosine antibody-peroxidase conjugate diluted 1:10,000 in PBS-T was added to the wells for 30 minutes. Following a 2 mis per well wash with PBS-Tween-20, 100 μl of 0-Phenylenediamine Dihydrochloride in phosphate-citrate buffer, containing urea hydrogen peroxide, was added to the wells for 7-10 minutes as a colorimetric substrate for the peroxidase. The reaction was terminated by the addition of 100 μl of 2.5N H2SO4 to each well and read using a microplate ELISA reader set at 492 nm. IC50 values for compound inhibition were calculated directly from graphs of optical density (arbitrary units) versus compound concentration following subtraction of blank values.
Target sequence in this assay (P09619 554-1106): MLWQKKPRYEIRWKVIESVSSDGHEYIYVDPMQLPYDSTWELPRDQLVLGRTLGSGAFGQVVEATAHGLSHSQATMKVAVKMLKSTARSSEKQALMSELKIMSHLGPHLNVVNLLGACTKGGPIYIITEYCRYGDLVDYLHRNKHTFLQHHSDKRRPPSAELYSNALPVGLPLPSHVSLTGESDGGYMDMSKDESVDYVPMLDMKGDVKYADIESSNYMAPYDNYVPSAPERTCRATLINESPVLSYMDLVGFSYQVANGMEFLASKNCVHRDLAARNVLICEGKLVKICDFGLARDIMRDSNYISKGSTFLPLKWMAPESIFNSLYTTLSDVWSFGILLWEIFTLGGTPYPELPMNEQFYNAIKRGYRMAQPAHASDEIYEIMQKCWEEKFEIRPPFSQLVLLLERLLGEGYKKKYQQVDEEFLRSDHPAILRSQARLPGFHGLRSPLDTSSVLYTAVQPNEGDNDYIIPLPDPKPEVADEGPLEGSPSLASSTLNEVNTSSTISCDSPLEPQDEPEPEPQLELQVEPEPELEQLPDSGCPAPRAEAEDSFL

A further assay has as its target VEGFR2 (Homo sapiens (Human), UniProt P35968). Put plainly: VEGFR2 Cellular Assay (FLIPR, VEGF induced intracellular calcium in HUVEC). It counts as cell-based. To be noted: VEGF165 stimulation (10 ng/mL). As to the method: VEGFR2 Cellular Assay Automated FLIPR (Fluorometric Imaging Plate Reader) technology was used to screen for inhibitors of VEGF induced increases in intracellular calcium levels in fluorescent dye loaded endothelial cells. HUVEC (human umbilical vein endothelial cells) (Clonetics) were seeded in 384-well fibronectin coated black-walled plates overnight @ 37° C./5% CO2. Cells were loaded with calcium indicator Fluo-4 for 45 minutes at 37° C. Cells were washed 2 times (Elx405, Biotek Instruments) to remove extracellular dye. For screening, cells were pre-incubated with test agents for 30 minutes, at a single concentration (10 uM) or at concentrations ranging from 0.0001 to 10.0 uM followed by VEGF165 stimulation (10 ng/mL). Changes in fluorescence at 516 nm were measured simultaneously in all 384 wells using a cooled CCD camera. Data were generated by determining max-min fluorescence levels for unstimulated, stimulated, and drug treated samples. IC50 values for test compounds were calculated from inhibition of VEGF stimulated responses in the absence of inhibitor.
(In general: A change in cytosolic calcium serves as a functional read-out for many receptors and channels.)

The target in assay [2] is T1, PDGFRβ. Put plainly: PDGFRβ Cellular Assay (FLIPR, PDGF-induced intracellular calcium in NHDF-Ad). In kind it is cell-based. To be noted: PDGF-BB stimulation (30 ng/mL). As to the method:
NHDF-Ad (Normal Human Dermal Fibroblasts, Adult; Lonza) were seeded in 384-well fibronectin coated black-walled plates overnight @ 37° C./5% CO2. Cells were loaded with calcium indicator Fluo-4 for 45 minutes at 37° C. Cells were washed 2 times (Elx405, Biotek Instruments) to remove extracellular dye. For screening, cells were pre-incubated with test agents for 30 minutes, at a single concentration (10 uM) or at concentrations ranging from 0.0001 to 10.0 uM followed by PDGF-BB stimulation (30 ng/mL). Changes in fluorescence at 516 nm were measured simultaneously in all 384 wells using a cooled CCD camera. Data were generated by determining max-min fluorescence levels for unstimulated, stimulated, and drug treated samples. IC50 values for test compounds were calculated from % inhibition of PDGF-BB stimulated responses in the absence of inhibitor.
Target sequence in this assay (P09619 33-1106): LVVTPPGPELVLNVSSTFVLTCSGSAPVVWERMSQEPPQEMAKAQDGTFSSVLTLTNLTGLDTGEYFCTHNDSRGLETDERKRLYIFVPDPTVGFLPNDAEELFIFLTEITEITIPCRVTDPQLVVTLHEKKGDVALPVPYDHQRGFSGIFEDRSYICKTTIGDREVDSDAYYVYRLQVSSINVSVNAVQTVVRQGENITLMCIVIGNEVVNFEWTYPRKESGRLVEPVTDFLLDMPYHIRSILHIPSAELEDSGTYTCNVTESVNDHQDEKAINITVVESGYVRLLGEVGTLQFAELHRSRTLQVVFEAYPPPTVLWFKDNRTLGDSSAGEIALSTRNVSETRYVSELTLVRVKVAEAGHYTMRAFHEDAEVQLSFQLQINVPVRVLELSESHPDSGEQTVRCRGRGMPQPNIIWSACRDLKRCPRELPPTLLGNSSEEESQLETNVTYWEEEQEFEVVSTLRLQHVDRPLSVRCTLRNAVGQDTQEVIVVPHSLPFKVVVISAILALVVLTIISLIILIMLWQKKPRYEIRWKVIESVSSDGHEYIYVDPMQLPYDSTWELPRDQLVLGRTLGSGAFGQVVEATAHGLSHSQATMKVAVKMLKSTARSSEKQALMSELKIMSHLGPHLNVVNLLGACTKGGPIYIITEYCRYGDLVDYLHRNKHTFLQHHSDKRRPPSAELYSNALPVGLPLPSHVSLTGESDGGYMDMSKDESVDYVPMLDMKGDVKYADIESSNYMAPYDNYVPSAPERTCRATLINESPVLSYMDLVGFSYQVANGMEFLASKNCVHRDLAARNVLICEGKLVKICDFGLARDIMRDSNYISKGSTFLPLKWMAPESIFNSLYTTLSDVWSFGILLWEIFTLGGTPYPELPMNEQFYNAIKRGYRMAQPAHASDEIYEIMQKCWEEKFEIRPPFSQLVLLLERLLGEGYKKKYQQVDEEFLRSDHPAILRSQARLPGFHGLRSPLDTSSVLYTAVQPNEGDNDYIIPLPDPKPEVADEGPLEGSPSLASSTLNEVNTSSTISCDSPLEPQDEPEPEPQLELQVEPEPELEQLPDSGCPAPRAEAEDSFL

Where only a bound is given, the exact number is not on record here.

Chain of VEGFR2 (KDR) (P35968 786-1356): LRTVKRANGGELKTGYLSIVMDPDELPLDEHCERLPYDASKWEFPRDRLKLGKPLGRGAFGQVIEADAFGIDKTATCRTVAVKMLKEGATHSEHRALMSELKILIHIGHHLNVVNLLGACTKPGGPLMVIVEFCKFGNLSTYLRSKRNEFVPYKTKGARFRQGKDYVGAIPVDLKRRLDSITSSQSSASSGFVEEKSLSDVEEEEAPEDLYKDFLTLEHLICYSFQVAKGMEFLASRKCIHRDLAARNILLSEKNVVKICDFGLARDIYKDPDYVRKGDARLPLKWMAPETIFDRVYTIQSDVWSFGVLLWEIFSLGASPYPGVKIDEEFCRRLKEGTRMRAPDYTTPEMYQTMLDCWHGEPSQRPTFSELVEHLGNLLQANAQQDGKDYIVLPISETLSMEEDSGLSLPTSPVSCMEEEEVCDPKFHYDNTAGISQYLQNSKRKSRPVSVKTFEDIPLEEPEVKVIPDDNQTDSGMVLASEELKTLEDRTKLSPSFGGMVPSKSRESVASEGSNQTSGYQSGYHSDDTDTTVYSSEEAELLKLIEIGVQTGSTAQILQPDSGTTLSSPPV
Chain of VEGFR2 (P35968 20-1356): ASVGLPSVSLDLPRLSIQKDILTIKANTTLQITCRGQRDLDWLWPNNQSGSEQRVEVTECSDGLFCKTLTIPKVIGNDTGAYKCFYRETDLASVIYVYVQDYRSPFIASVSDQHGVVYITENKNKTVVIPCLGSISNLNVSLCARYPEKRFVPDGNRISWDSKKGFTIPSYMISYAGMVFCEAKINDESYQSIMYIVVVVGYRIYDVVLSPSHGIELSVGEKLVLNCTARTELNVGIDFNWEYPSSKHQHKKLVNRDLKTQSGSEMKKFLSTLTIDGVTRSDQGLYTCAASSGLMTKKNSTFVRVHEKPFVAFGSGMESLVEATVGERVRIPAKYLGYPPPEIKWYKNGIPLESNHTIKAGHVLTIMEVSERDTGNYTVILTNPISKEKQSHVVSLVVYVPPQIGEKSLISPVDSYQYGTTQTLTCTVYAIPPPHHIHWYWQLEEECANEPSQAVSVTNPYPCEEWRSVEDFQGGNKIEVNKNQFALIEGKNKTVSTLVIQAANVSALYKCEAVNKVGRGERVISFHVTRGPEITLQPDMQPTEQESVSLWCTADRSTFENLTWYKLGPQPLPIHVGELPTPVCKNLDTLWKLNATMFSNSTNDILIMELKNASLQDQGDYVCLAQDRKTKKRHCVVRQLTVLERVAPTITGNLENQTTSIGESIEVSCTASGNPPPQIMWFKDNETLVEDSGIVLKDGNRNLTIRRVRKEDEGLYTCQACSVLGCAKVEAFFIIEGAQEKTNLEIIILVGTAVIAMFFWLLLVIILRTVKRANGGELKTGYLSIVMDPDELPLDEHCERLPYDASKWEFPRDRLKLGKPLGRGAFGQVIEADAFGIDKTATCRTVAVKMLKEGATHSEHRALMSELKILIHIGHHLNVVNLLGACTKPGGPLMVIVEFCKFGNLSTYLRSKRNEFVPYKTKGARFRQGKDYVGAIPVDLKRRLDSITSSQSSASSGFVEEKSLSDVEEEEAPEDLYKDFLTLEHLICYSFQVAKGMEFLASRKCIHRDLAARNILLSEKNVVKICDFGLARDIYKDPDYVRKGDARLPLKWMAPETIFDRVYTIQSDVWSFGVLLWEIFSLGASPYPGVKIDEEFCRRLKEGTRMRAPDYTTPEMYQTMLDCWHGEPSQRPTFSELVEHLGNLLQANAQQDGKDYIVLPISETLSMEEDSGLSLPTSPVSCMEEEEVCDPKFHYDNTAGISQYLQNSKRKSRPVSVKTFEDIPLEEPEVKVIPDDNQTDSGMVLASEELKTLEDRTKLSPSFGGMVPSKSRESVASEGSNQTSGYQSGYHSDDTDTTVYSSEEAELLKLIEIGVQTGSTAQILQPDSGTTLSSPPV

Turning to `Cc1cccc(NC(=O)Nc2cccc(N3CCc4c(cnc5ccnn45)C3)c2)c1` [Example 12, 1-[3-(8,9-dihydropyrazolo[1,5-a]pyrido[3,4-e]pyrimidin-7(6H)-yl)phenyl]-3-(3-methylphenyl)urea], the IC50 – broadly, the concentration needed to halve the response being measured – on VEGFR2 (KDR) is 27 nM; against PDGFRβ [1] it was 32 nM.

For the compound `O=C(Nc1cccc(C(F)(F)F)c1)c1cccc(N2CCc3c(cnc4ccnn34)C2)c1` [Example 4, 3-(8,9-dihydropyrazolo[1,5-a]pyrido[3,4-e]pyrimidin-7(6H)-yl)-N-[3-(trifluoromethyl)phenyl] benzamide], the IC50 came out at 6 nM on VEGFR2 (KDR), 70 nM at VEGFR2, 27 nM on PDGFRβ [1] and 192 nM on PDGFRβ [2].

For the compound `CC(C)(C)OC(=O)Nc1cccc(N2CCc3c(cnc4ccnn34)C2)c1` [Example 8, tert-Butyl (3-(8,9-dihydropyrazolo[1,5-a]pyrido[3,4-e]pyrimidin-7(6H)-yl)phenyl)carbamate], at VEGFR2 (KDR), the IC50 is > 10000 nM.

Take `CC(C)c1cccc(NC(=O)c2cccc(N3CCc4c(cnc5ccnn45)C3)c2)c1` [Example 3, 3-(8,9-dihydropyrazolo[1,5-a]pyrido[3,4-e]pyrimidin-7(6H)-yl)-N-(3-isopropylphenyl)benzamide]: the results for the IC50 against VEGFR2 (KDR), at VEGFR2 and on PDGFRβ [1] were 8 nM, 26 nM and 20 nM, respectively.

Consider `O=C(Nc1cccc(N2CCc3c(cnc4ccnn34)C2)c1)c1ccccc1` [Example 10, N-[3-(8,9-dihydropyrazolo[1,5-a]pyrido[3,4-e]pyrimidin-7(6H)-yl)phenyl]benzamide], for which the values for the IC50 at VEGFR2 (KDR) and on PDGFRβ [1] were 101 nM and 202 nM, respectively.

For the compound `O=C(Nc1cccc(N2CCc3c(cnc4ccnn34)C2)c1)c1cccc(C(F)(F)F)c1` [Example 11, N-[3-(8,9-dihydropyrazolo[1,5-a]pyrido[3,4-e]pyrimidin-7(6H)-yl)phenyl]-3-(trifluoromethyl)benzamid], the IC50 at VEGFR2 (KDR) came to 6 nM; on PDGFRβ [1] it was 21 nM.

On to `CC(C)c1cccc(NC(=O)c2cccc(N3Cc4cnc5ccnn5c4C3)c2)c1` [Example 7, 3-(6,8-dihydro-7H-pyrazolo[1,5-a]pyrrolo[3,4-e]pyrimidin-7-yl)-N-(3-isopropylphenyl)benzamide], for which the IC50 at VEGFR2 (KDR) is > 10000 nM.
